# Test system: MBT-2 tumors
# Experiment: Anti-tumoral activity in MBT-2 syngeneic ectotopic (subcutaneous) tumor model
# Type: in vivo, mouse
# Set-up: key to Statistical significance for tumor growth versus Anti-PD-1: p value < 0.05*; ns: Ns: non significant
# Experimental: The aim of this study is to determine the anti-tumoral activity of ABX196 or of anti-PD-1 antibody, administered systemically alone, in MBT2 syngeneic ectotopic models and in particular, to evaluate the capacity of these agents to treat established sub-cutaneous tumors.
# Anti-PD-1 antibody (ref.: BE0146, BioXcell; clone: RMP1-14, reactivity: mouse; isotype: Rat IgG2a; storage conditions: +4° C.). Anti-PD-1 antibody is prepared in phosphate buffered saline (PBS) or other suitable vehicle according to manufacturer's recommendation. The anti-PD-1 antibody is administered at the dose of 10 mg/kg. Anti-PD-1 antibody is injected into the peritoneal cavity of mice (Intraperitoneally, IP). Anti-PD-1 antibody is administered at a dose volume of 10 mL/kg/adm.
# ABX196 is provided as a solution at […] and is administered at the dose of 100 ng per mouse. ABX196 is injected by the intravenous route in the caudal vein of mice (IV, bolus). ABX196 is administered at a fixed dose volume of 100 μL (i.e. approximately 5 mL/kg/adm. for one mouse weighing 20 g).
# Tumor cells are grown as monolayer at 37° C. in a humidified atmosphere (5% CO2, 95% air). The culture medium is RPMI 1640 containing 2 mM L-glutamine (ref: BE12-702F, Lonza, Verviers, Belgium) supplemented with 10% fetal bovine serum (ref: 3302, Lonza). Tumor cells are adherent to plastic flasks. For experimental use, tumor cells are detached from the culture flask by a 5-minutes treatment with trypsin-versene (ref: BE02-007E, Lonza), in Hanks' medium without calcium or magnesium (ref: BE10-543F, Lonza) and neutralized by addition of complete culture medium.
# 68 (sixty-eight) healthy female C3H/HeJ (C3H/HeOuJ) mice, 6-7 weeks old, are obtained from The Jackson Laboratory (Bar Harbor, Me.) for the MBT-2 model.
# MBT-2 tumors are induced by subcutaneous injection of 1×10^6 cells in 200 μL of RPMI 1640 into the right flank of the sixty-eight female animals.
# The treatment starts when the tumors reach a mean volume of 80-120 mm^3 (day 13 in this experiment). The sixty-eight mice for the MBT-2 model are randomized according to their individual tumor volume into 4 groups each (one not shown) of 12 animals using Vivo Manager® software (Biosystemes, Couternon, France). A statistical test (analysis of variance, ANOVA) is performed to test for homogeneity between groups. The treatment schedule was chosen as follows:
# Animals from group 1 receive an IV injection of ABX196 vehicle and an IP injection of anti-PD-1 antibody vehicle,
# Animals from group 2 receive an IV injection of 100 ng of ABX196,
# Animals from group 3 receive twice weekly administrations of anti-PD-1 antibody,
# Tumor growth inhibition (T/C) is defined as the ratio of the median tumor volumes of treated versus control group. The optimal value is the minimal T/C ratio reflecting the maximal tumor growth inhibition achieved.
# [1] = day 20, one way ANOVA, pair wise Bonferroni's multiple comparison test
structure (smiles),measurement,setting,value
CCCCCCCCCCCCCCCCCCCCCCCC(=O)N[C@@H](CO[C@H]1O[C@H](CNC(C)=O)[C@H](O)[C@H](O)[C@H]1O)[C@H](O)[C@H](O)CCCCCCCCCCCCCC [ABX196],"T/C (%) (tumor growth inhibition, ratio of median tumor volumes of treated versus control group)","C3H/HeJ mice with subcutaneous MBT-2 tumors, day 23 after tumor induction, ABX196 100 ng IV Q1Dx1, anti-PD-1 10 mg/kg IP TWx2",54%
same,Statistical significance for tumor growth versus Anti-PD-1,[1],ns
same,Statistical significance for tumor growth versus Vehicle,[1],* (p value < 0.05*)
same,"Mean tumor volume in function of time after tumor induction (FIG. 1), compared with anti-PD-1 antibodies","subcutaneous MBT-2 tumors, ABX196 100 ng IV Q1Dx1",reduces more efficiently the tumor volume than anti-PD-1 antibodies
same,"Tumor growth inhibition (FIG. 2), compared with anti-PD-1 antibodies","subcutaneous MBT-2 tumors, day 23, ABX196 100 ng IV Q1Dx1",inhibits more efficiently the tumor growth than anti-PD-1 antibodies
